In ChEMBL document CHEMBL4038308, “Lipophosphonoxins II: Design, Synthesis, and Properties of Novel Broad Spectrum Antibacterial Agents” (J Med Chem, 2017):
In brackets after ≈: the same amount, converted by molar mass. Activity calls are given as the source filed them. No cut-off for these calls is given here.

Key:
[1] = Chemical stability of compound at 50 to 500 mg/L at pH 8.8 after 24 hrs at room temperature by LC-MS analysis; format: physicochemical; details: buffer, pH 8.8, 24 h
[2] = Pore forming activity across black lipid bilayer membranes assessed as induction of variation in membrane current by measuring pore conductance at 5 ug/ml
[3] = test system: Escherichia coli; assay: Antibacterial activity against Escherichia coli CCM 3954 after 24 hrs by microdilution method; format: functional; details: CCM 3954, 24 h
[4] = test system: Staphylococcus epidermidis; assay: Induction of cytoplasmic membrane permeabilization in Staphylococcus epidermidis 8700/B assessed as increase in propidium iodide fluorescence intensity at 5 mg/L by spectrofluorometric analysis; format: functional
[5] = test system: Staphylococcus aureus; assay: Antibacterial activity against Staphylococcus aureus CCM 4223 after 24 hrs by microdilution method; format: functional; details: CCM 4223, 24 h
[6] = test system: Stenotrophomonas maltophilia; assay: Antibacterial activity against Stenotrophomonas maltophilia S2-23 after 24 hrs by microdilution method; format: functional; details: S2-23, 24 h
[7] = test system: Oryctolagus cuniculus; assay: Toxicity in topically applied rabbit assessed as skin irritation measured up to 14 days post dose; details: in vivo, topical_or_ocular, 336 h
[8] = test system: Staphylococcus aureus; assay: Bactericidal activity against Staphylococcus aureus CCM 4223 assessed as reduction in bacterial count at 6.25 to 25 mg/L after 15 mins by time kill assay; format: functional
[9] = Critical micellar concentration of the compound by capillary electrophoresis method
[10] = Chemical stability of compound at 50 to 500 mg/L at pH 0.18 after 24 hrs at 37 degC by LC-MS analysis; format: physicochemical; details: buffer, pH 0.18, 24 h
[11] = test system: Staphylococcus aureus; assay: Bactericidal activity against Staphylococcus aureus CCM 4223 assessed as reduction in bacterial count at 12.5 mg/L after 6 hrs by time kill assay; format: functional
[12] = test system: J774.A1; assay: Cytotoxicity against mouse J774A.1 cells assessed as damage to cell membrane by measuring propidium iodide intake at 5 mg/L by spectrofluorometric analysis; format: cell-based
[13] = test system: Escherichia coli; assay: Induction of cytoplasmic membrane permeabilization in Escherichia coli CCM 3954 assessed as increase in propidium iodide fluorescence intensity at 5 mg/L by spectrofluorometric analysis; format: functional
[14] = test system: Escherichia coli; assay: Antibacterial activity against Escherichia coli 16702 after 24 hrs by microdilution method; format: functional; details: Escherichia coli, 16702, 24 h
[15] = test system: Enterococcus faecium; assay: Antibacterial activity against vancomycin-resistant Enterococcus faecium 419/ana clinical isolates after 24 hrs by microdilution method; format: functional
[16] = test system: TERT-RPE1; assay: Induction of apoptosis in human RPE1 cells assessed as caspase 3/7 activation up to 80 mg/L after 4 hrs by caspase-Glo 3/7 luminescent assay; format: cell-based; details: tert-rpe1, 4 h
[17] = test system: Bacillus subtilis; assay: Antibacterial activity against Bacillus subtilis after 24 hrs by microdilution method; format: functional
[18] = Chemical stability of compound at 50 to 500 mg/L at pH 8.8 after 24 hrs at 37 degC by LC-MS analysis; format: physicochemical; details: buffer, pH 8.8, 24 h
[19] = Apparent permeability across apical to basolateral side in human Caco2 cells at 200 uM after 3 hrs by LC-MS analysis; format: ADME, cell-based; details: caco-2, 3 h
[20] = test system: Salmonella enteritidis; assay: Antibacterial activity against Salmonella enteritidis S2-25 after 24 hrs by microdilution method; format: functional, Salmonella enterica subsp. enterica serovar Enteritidis; details: Salmonella enterica, S2-25, 24 h
[21] = test system: TERT-RPE1; assay: Cytotoxicity against human RPE1 cells assessed as disruption of cell membrane integrity after 4 hrs by CytoTox-ONE-based assay; details: tert-rpe1, 4 h
[22] = test system: Mus musculus; assay: Toxicity in ICR mouse assessed as mortality up to 2000 mg/kg, po administered as single dose measured for 2 weeks; format: organism-based; details: in vivo, 336 h
[23] = test system: Staphylococcus aureus; assay: Bactericidal activity against Staphylococcus aureus CCM 4223 assessed as reduction in bacterial count at 6.25 mg/L after 6 to 24 hrs by time kill assay; format: functional
[24] = test system: Bacillus subtilis; assay: Antibacterial activity against Bacillus subtilis assessed as rupture of cell envelope at 10 mg/L after 10 mins by scanning electron microscopic analysis; format: functional
[25] = test system: Escherichia coli; assay: Bactericidal activity against Escherichia coli CCM 3954 assessed as reduction in bacterial count at 6.25 to 25 mg/L after 45 mins by time kill assay; format: functional
[26] = test system: HepG2; assay: Induction of apoptosis in human HepG2 cells assessed as caspase 3/7 activation up to 80 mg/L after 4 hrs by caspase-Glo 3/7 luminescent assay; format: cell-based; details: hepg2, 4 h
[27] = test system: Bacillus subtilis; assay: Antibacterial activity against Bacillus subtilis assessed as inhibition of peptidoglycan synthesis at 2.5 mg/L after 50 mins by [3H]-N-acetylglucosamine incorporation assay; format: functional
[28] = Chemical stability of compound at 50 to 500 mg/L at pH 5 after 24 hrs at room temperature by LC-MS analysis; format: physicochemical; details: buffer, pH 5, 24 h
[29] = Chemical stability of compound at 50 to 500 mg/L at pH 5 after 24 hrs at 37 degC by LC-MS analysis; format: physicochemical; details: buffer, pH 5, 24 h
[30] = test system: Staphylococcus aureus; assay: Antibacterial activity against methicillin-resistant Staphylococcus aureus 4591 clinical isolates after 24 hrs by microdilution method; format: functional; details: Staphylococcus aureus, 4591, 24 h
[31] = test system: BJ; assay: Cytotoxicity against human BJ cells assessed as reduction in cell viability after 48 hrs by ATPlite reagent based assay
[32] = test system: TERT-RPE1; assay: Cytotoxicity against human RPE1 cells assessed as disruption of cell membrane integrity at >80 mg/L after 4 hrs by CytoTox-ONE-based assay; details: tert-rpe1, 4 h
[33] = test system: Staphylococcus aureus; assay: Bactericidal activity against Staphylococcus aureus CCM 4223 assessed as reduction in bacterial count at 25 mg/L after 5 hrs by time kill assay; format: functional
[34] = test system: Escherichia coli; assay: Bactericidal activity against Escherichia coli CCM 3954 assessed as bacterial count at 25 mg/L up to 6 hrs by time kill assay; format: functional
[35] = test system: Bacillus subtilis; assay: Antibacterial activity against Bacillus subtilis assessed as inhibition of DNA synthesis at 2.5 mg/L after 50 mins by [3H]thymidine incorporation assay; format: functional
[36] = test system: HepG2; assay: Cytotoxicity against human HepG2 cells assessed as disruption of cell membrane integrity after 4 hrs by CytoTox-ONE-based assay; details: hepg2, 4 h
[37] = test system: HepG2; assay: Cytotoxicity against human HepG2 cells assessed as reduction in cell viability after 48 hrs by ATPlite reagent based assay; details: hepg2, 48 h
[38] = test system: Enterococcus faecalis; assay: Antibacterial activity against Enterococcus faecalis CCM 4224 after 24 hrs by microdilution method; format: functional; details: CCM 4224, 24 h
[39] = test system: Burkholderia multivorans; assay: Antibacterial activity against Burkholderia multivorans after 24 hrs by microdilution method; format: functional
[40] = test system: Staphylococcus haemolyticus; assay: Antibacterial activity against fluoroquinolne-resistant Staphylococcus haemolyticus 16568 after 24 hrs by microdilution method; format: functional; details: Staphylococcus haemolyticus, 16568, 24 h
[41] = test system: Staphylococcus epidermidis; assay: Antibacterial activity against Staphylococcus epidermidis 8700/B after 24 hrs by microdilution method; format: functional
[42] = test system: Mus musculus; assay: Toxicity in ICR mouse assessed as body weight loss up to 2000 mg/kg, po administered as single dose measured for 2 weeks; format: organism-based; details: in vivo, 336 h
[43] = test system: Streptococcus agalactiae; assay: Antibacterial activity against Streptococcus agalactiae after 24 hrs by microdilution method; format: functional
[44] = test system: Pseudomonas aeruginosa; assay: Antibacterial activity against Pseudomonas aeruginosa CCM 3955 after 24 hrs by microdilution method; format: functional; details: CCM 3955, 24 h

## CCCCCCCCCCCCCCOP(=O)(CCN(CCCN)CCCN)OC[C@H]1O[C@@H](n2ccc(=O)[nH]c2=O)[C@H](O)[C@@H]1O (some centres undefined)
[1]
  Stability: Stable
[2]
  Activity: 73 to 151 pS
[3]
  MIC: 6.25 µg/mL (≈ 9.44 µM)
[4]
  Activity: Active
[5]
  MIC: 6.25 µg/mL (≈ 9.44 µM)
[6]
  MIC: 12.5 µg/mL (≈ 18.9 µM)
[7]
  Activity: Non-Toxic
[8]
  Activity: Active
[9]
  CMC: 4.55 mM
[10]
  Stability: Stable
[11]
  Activity: Active
[12]
  Activity: Non-Toxic
[13]
  Activity: Active
[14]
  MIC: 3.13 µg/mL (≈ 4.73 µM)
[15]
  MIC: 100 µg/mL (≈ 151 µM)
[16]
  Activity: Non-Toxic
[17]
  MIC: 0.78 µg/mL (≈ 1.18 µM)
[18]
  Stability: Stable
[19]
  permeability: Impermeable
[20]
  MIC: 3.13 µg/mL (≈ 4.73 µM)
[21]
  Activity: Non-Toxic
[22]
  Activity: Non-Toxic
[23]
  Activity: Active
[24]
  Activity: Active
[25]
  Activity: Active
[26]
  Activity: Non-Toxic
[27]
  inhibition: inactive
[28]
  Stability: Stable
[29]
  Stability: Stable
[30]
  MIC: 6.25 µg/mL (≈ 9.44 µM)
[31]
  Activity: 30.7 mg/L
[32]
  Activity: Non-Toxic
[33]
  Activity: Active
[34]
  Activity: 0
[35]
  inhibition: inactive
[36]
  Activity: Non-Toxic
[37]
  Activity: 40.3 mg/L
[38]
  MIC: 25 µg/mL (≈ 37.8 µM)
[39]
  MIC: 50 µg/mL (≈ 75.5 µM)
[40]
  MIC: 1.56 µg/mL (≈ 2.36 µM)
[41]
  MIC: 1.56 µg/mL (≈ 2.36 µM)
[42]
  Activity: Non-Toxic
[43]
  MIC: 3.13 µg/mL (≈ 4.73 µM)
[44]
  MIC: 0.78 µg/mL (≈ 1.18 µM)
